# Values quoted from earlier work, collected in patent US8211887B2, “Topical preparation and method for transdermal delivery and localization of therapeutic agents” (priority 2005, dated 2012).
# Where two headings read alike, the source gives them in different places.
# [1] = local anesthetic, for levobupivacaine: locally
compound,measurement,setting,value
CCN(CC)CCOC(=O)c1ccc(N)cc1Cl [chloroprocaine],duration of action,local anesthetic,0.5 to 1 h
same,onset of action,local anesthetic,6 to 12 min
same,peak,local anesthetic,10 to 20 min
CCCCN1CCCC[C@H]1C(=O)Nc1c(C)cccc1C [levobupivacaine],duration of action,if used for epidural or peripheral nerve blocks or obstetrical anesthesia,3 to 9 h
same,onset of action,local anesthetic,2 to 10 min
same,duration of action,[1],2 to 4 h
Cc1cccc(C)c1NC(=O)C1CCCCN1C (stereo not drawn) [mepivacaine],duration of action,local anesthetic,0.75 to 1.5 h
same,onset of action,local anesthetic,3 to 5 min
same,peak,local anesthetic,15 to 45 min
CCN(CC)CCOC(=O)c1ccc(N)cc1 [procaine],onset of action,local anesthetic,5 to 10 min
same,peak,local anesthetic,less than 30 minutes
same,duration of action,[1],less than 2 hours
CCCN1CCCC[C@H]1C(=O)Nc1c(C)cccc1C [ropivacaine],onset of action,local anesthetic,1 to 15 min
same,peak,local anesthetic,20 to 45 min
same,duration of action,[1],2 to 6 h
